In ChEMBL document CHEMBL1125324, “Development of a novel class of cyclic hexapeptide oxytocin antagonists based on a natural product” (J Med Chem, 1992):
Values after ≈ are worked out from the molar mass of the structure shown. Where a SMILES comes first, the peptide text is derived from it. [ ]: non-standard residue; d: D form. d2Nal = N[C@H](Cc1ccc2ccccc2c1)C(=O)O; Pip(4-aza) = O=C(O)[C@@H]1CNCCN1; dNMeF = CN[C@H](Cc1ccccc1)C(=O)O; Pip = O=C(O)[C@@H]1CCCCN1; dPip = O=C(O)[C@H]1CCCCN1

Tests used:
[1] = Aqueous solubility was determined; format: physicochemical
Vasopressin V2 receptor [2] = target: T1, Vasopressin V2 receptor (Rattus norvegicus, UniProt Q00788); assay: Inhibition of [3H]arginine vasopressin binding to AVP-V2 site in rat kidney medulla.; format: tissue-based
T1 sequence (Q00788 whole entry): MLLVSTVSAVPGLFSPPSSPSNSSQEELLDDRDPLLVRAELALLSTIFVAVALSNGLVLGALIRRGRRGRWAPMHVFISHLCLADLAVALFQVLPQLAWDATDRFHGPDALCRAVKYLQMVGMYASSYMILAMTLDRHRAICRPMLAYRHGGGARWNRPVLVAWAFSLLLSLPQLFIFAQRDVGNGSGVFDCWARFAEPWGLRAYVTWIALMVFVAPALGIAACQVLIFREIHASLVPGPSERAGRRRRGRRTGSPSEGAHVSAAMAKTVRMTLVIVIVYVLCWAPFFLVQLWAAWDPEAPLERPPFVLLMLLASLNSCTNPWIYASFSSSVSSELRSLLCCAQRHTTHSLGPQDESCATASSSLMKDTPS

Rattus norvegicus [3] = species: Rattus norvegicus; assay: Compound was evaluated for the inhibition of accumulation of total [3H]inositol phosphates stimulated by exposure of the tissue to OT; format: functional
Rattus norvegicus [4] = species: Rattus norvegicus; assay: pA2 value was determined from regression analysis of log (dose ratio-1) vs -log [antagonist] (isolated uterus from DES-pretreated rats); format: functional; conditions: read-out: pA2 (converted)
Rattus norvegicus [5] = assay: Dose required for 50% reduction of the contractile response of the uterus to OT (1 ug/kg, iv bolus) in DES-pretreated rats; format: functional
Vasopressin V1a receptor = Vasopressin V1a receptor (Rattus norvegicus, UniProt P30560); assay: Concentration required to displace 50% of [3H]arginine vasopressin from rat liver arginine vasopressin 1A (AVP-V1a) site.
Chain of Vasopressin V1a receptor (P30560 whole entry): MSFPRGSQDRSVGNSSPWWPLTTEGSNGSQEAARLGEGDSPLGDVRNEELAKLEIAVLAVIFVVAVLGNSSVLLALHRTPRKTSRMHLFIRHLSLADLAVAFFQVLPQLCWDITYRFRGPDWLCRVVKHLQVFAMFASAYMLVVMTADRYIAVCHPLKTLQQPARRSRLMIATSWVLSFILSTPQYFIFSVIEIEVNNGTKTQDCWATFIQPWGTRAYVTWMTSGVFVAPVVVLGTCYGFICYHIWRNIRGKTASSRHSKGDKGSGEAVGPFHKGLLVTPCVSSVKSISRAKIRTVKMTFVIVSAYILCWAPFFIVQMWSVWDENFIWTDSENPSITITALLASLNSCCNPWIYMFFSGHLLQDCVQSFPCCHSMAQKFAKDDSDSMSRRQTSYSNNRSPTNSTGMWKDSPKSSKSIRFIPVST

[6] = target: Vasopressin V1a receptor (Rattus norvegicus) (UniProt P30560); assay: Displacement of [3H]arginine vasopressin from rat liver (AVP-V1a site) at 10 uM
Chain of Vasopressin V1a receptor (Rattus norvegicus) (P30560 whole entry, looked up): as the sequence (P30560 whole entry) above

[7] = target: Vasopressin V2 receptor (Rattus norvegicus) (UniProt Q00788); assay: Displacement of [3H]arginine vasopressin from rat kidney medullary (AVP-V2 site) at 10 uM; format: tissue-based
Chain of Vasopressin V2 receptor (Rattus norvegicus) (Q00788 whole entry): as the sequence (Q00788 whole entry) above

[8] = target: T2, Oxytocin receptor (Rattus norvegicus) (UniProt P70536); assay: Inhibition of displacement of [3H]oxytocin from rat uterine receptor at 10 uM
T2 sequence (whole entry): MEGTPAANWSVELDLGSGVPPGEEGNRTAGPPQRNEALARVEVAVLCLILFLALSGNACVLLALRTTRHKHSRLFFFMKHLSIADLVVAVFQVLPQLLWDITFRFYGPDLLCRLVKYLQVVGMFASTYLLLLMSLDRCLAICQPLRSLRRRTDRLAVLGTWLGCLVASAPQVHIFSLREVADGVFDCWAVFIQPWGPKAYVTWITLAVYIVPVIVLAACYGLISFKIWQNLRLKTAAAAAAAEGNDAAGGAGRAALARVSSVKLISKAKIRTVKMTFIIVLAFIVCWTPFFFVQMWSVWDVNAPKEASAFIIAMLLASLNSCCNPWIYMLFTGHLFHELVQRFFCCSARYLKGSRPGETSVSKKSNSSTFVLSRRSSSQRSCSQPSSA

Vasopressin V2 receptor [9] = target: T1, Vasopressin V2 receptor; assay: Concentration required to displace 50% of [3H]arginine vasopressin from rat kidney medullary (AVP-[…] site)
Oxytocin receptor [10] = target: T3, Oxytocin receptor (Homo sapiens, UniProt P30559); assay: Compound was evaluated for OT receptor affinity by displacement of [3H]OT from binding sites in uterine tissue taken from nonlabor pregnant women
T3 sequence (P30559 whole entry): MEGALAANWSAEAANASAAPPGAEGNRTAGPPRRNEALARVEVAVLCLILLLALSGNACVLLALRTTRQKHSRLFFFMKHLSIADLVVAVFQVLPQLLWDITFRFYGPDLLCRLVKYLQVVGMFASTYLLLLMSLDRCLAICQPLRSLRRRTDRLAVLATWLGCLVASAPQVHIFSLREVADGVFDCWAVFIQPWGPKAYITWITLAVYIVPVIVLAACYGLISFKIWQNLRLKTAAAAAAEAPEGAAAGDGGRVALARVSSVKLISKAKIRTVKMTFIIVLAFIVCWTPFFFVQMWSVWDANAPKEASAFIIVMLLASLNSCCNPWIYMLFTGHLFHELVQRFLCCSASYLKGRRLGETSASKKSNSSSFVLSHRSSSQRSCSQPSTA

Oxytocin receptor [11] = target: T4, Oxytocin receptor (Rattus norvegicus, UniProt P70536); assay: Concentration required to displace 50% of [3H]oxytocin from rat uterine receptor.
T4 sequence (P70536 whole entry): T2 sequence (whole entry)

Oxytocin receptor [12] = target: T4, Oxytocin receptor; assay: Compound was evaluated for OT receptor affinity by displacement of [3H]OT from binding sites in uterine tissue taken from pregnant rats
Rattus norvegicus [13] = species: Rattus norvegicus; assay: pA2 value by AVP (V1a) stimulated contraction of the isolated rat tail artery; format: functional; conditions: read-out: pA2 (converted)
Vasopressin V2 receptor [14] = target: T1, Vasopressin V2 receptor; assay: Ability to inhibit AVP stimulation of adenylate cyclase activity in the rat kidney medulla (AVP-V2) receptor
Rattus norvegicus [15] = species: Rattus norvegicus; assay: Compound was evaluated for the inhibition of accumulation of total [3H]inositol phosphates stimulated by exposure of uterine slices from DES-pretreated rats to OT; format: functional
Rattus norvegicus [16] = species: Rattus norvegicus; assay: pA2 value was determined from regression analysis of log (dose ratio-1) vs -log [antagonist] (OT stimulated contractions in isolated uterus from DES-pretreated rats); format: functional; conditions: read-out: pA2 (converted)

solubility [1] [µg/mL]	IC50 (Vasopressin V2 receptor [2]) [nM]	IC50 (Vasopressin V1a receptor) [nM]	Compound	Kb (Rattus norvegicus [4]) [nM]	AD50 (Rattus norvegicus [5]) [mg/kg]	also measured
1900 (≈ 2520 µM)	1100	–	CC[C@H](C)[C@@H]1NC(=O)[C@@H](Cc2c[nH]c3ccccc23)NC(=O)[C@@H]2CCCN2C(=O)[C@@H](Cc2c[nH]cn2)NC(=O)[C@@H]2CCCCN2C(=O)[C@H]2CCC=NN2C1=O	1.51	0.0903	IC50 (Rattus norvegicus [3]): 42 nM
1500 (≈ 2020 µM)	–	800	CC[C@H](C)[C@@H]1NC(=O)[C@@H](Cc2ccccc2)NC(=O)[C@@H]2CCCN2C(=O)[C@@H](Cc2ccccc2)N(C)C(=O)[C@H](CCCN)NC(=O)[C@H]2CCC=NN2C1=O	3.39	0.0716	–
–	–	–	CC[C@H](C)[C@@H]1NC(=O)[C@H](C)NC(=O)[C@@H]2CCCN2C(=O)[C@@H](Cc2ccccc2)N(C)C(=O)[C@@H]2CCCCN2C(=O)[C@H]2CCCCN2C1=O	–	–	inhibition [6]: 0%; inhibition [7]: 4%; inhibition [8]: 0%
–	–	1600	CC[C@H](C)[C@@H]1NC(=O)[C@@H](Cc2c[nH]c3ccccc23)NC(=O)[C@@H]2CCCN2C(=O)[C@@H](Cc2ccccc2)N(C)C(=O)[C@H](CCCCN)NC(=O)[C@H]2CCCCN2C1=O (cyclo(I[dPip]K[dNMeF]P[dW]))	–	–	IC50 (Vasopressin V2 receptor [9]): 410 nM
1400 (≈ 1790 µM)	690	32000	CC[C@H](C)[C@@H]1NC(=O)[C@@H](Cc2c[nH]c3ccccc23)NC(=O)[C@@H]2CCCN2C(=O)[C@@H](Cc2ccccc2)N(C)C(=O)[C@@H]2CNCCN2C(=O)[C@H]2CCCCN2C1=O (cyclo(I[dPip][Pip(4-aza)][dNMeF]P[dW]))	2.57	0.101	Ki (Oxytocin receptor [10]): 4.5 nM; IC50 (Oxytocin receptor [11]): 8.4 nM; Ki (Oxytocin receptor [12]): 3.4 nM
1500 (≈ 1960 µM)	910	2600	CC[C@H](C)[C@@H]1NC(=O)[C@@H](Cc2ccc3ccccc3c2)NC(=O)[C@@H]2CCCN2C(=O)[C@@H](Cc2c[nH]cn2)NC(=O)[C@@H]2CCCCN2C(=O)[C@H]2CCCCN2C1=O (cyclo(I[dPip][Pip][dH]P[d2Nal]))	2.95	0.102	Ki (Oxytocin receptor [10]): 5.1 nM; IC50 (Rattus norvegicus [3]): 40 nM; Kb (Rattus norvegicus [13]): 282 nM; IC50 (Oxytocin receptor [11]): 2.2 nM; IC50 (Vasopressin V2 receptor [14]): 810 nM; Ki (Oxytocin receptor [12]): 0.7 nM
–	–	–	CC[C@H](C)[C@@H]1NC(=O)[C@@H](Cc2c[nH]c3ccccc23)NC(=O)[C@@H]2CCCN2C(=O)[C@@H](Cc2c[nH]cn2)NC(=O)[C@@H]2CCCCN2C(=O)[C@H]2CCCCN2C1=O (cyclo(I[dPip][Pip][dH]P[dW])) [listing 1 of 2 here]	–	–	IC50 (Rattus norvegicus [15]): 67 nM; Kb (Rattus norvegicus [13]): 871 nM; Kb (Rattus norvegicus [16]): 2.51 nM
2000 (≈ 2650 µM)	5200	7400	CC[C@H](C)[C@@H]1NC(=O)[C@@H](Cc2c[nH]c3ccccc23)NC(=O)[C@@H]2CCCN2C(=O)[C@@H](Cc2c[nH]cn2)NC(=O)[C@@H]2CCCCN2C(=O)[C@H]2CCCCN2C1=O (cyclo(I[dPip][Pip][dH]P[dW])) [listing 2 of 2 here]	–	–	IC50 (Vasopressin V2 receptor [14]): 3100 nM
